Consider 1 compound from patent US8197775B2, “Detection article having fluid control film” (priority 1999, dated 2012).

Molecules are shown by their SMILES. ≈ marks a conversion by molar mass, not a printed value.

The subject of the test is Escherichia coli ATCC 51813. Kind of test: Minimum inhibitory concentration (MIC) test using microchannels, MUG fluorescence read-out. It counts as cell-based. Particulars: ATCC51813, VRB media with MUG 0.5 mg/ml, 16 hours at 37° C., control tubes and microchannels. On the procedure: Microchannel polyethylene films were heat embossed on a hydraulic press according to the procedure outlined in U.S. patent application Ser. No. 08/905,481. […] The channels were covered with ScotchPak #33 (3M Company) using an iron heated to 149 degrees C. (300 degrees F.), forming a series of capillary channels.
A dilution series of tetracycline was prepared in VRB media (7.0 g Bacto peptone, 3.0 g yeast extract, 1.5 g bile salts per liter) containing the fluorescent indicator methylumbelliferyl glucuronide (MUG, 0.5 mg/ml). The following tetracycline concentrations were prepared: 40, 4, 0.4, 0.04, and 0.004 micrograms/ml. Approximately 1 ml of each solution was placed in a test tube. A suspension of Escherichia coli ATCC 51813 (100 microliters of approximately 10^7 bacteria/ml) was added to each tube. A syringe was used to transfer each solution into adjacent microchannels (1.6 microliters/channel). Both the control tubes and the microchannel device were incubated for 16 hours at 37° C. After incubation the samples were observed under ultraviolet radiation.

Take `CN(C)[C@@H]1C(O)=C(C(N)=O)C(=O)[C@@]2(O)C(O)=C3C(=O)c4c(O)cccc4[C@@](C)(O)[C@H]3C[C@@H]12` [tetracycline]: the MIC was 4 mg/L (≈ 9 µM).
